Measurements as given in patent US20230271964A1, “5-AMINO-8-(4-PYRIDYL)-[1,2,4]TRIAZOLO[4,3-C]PYRIMIDIN-3-ONE COMPOUNDS FOR USE AGAINST CANCER” (ASTRAZENECA AB, priority 2020, published 2023).

Assays:
[1] = target: human adenosine A2A receptor (Homo sapiens (Human), UniProt P29274); assay: Adenosine receptor inhibition binding assay, [3H]ZM241385, HEK293 A2A receptor membranes; details: 1 nM [3H]ZM241385, HEK293-hA2A membranes, 25° C., 1 h; Ki from IC50 by Cheng-Prusoff
Description: (§1) Inhibition binding assays were performed using 0.2 µg of membranes prepared from HEK293 cells infected with BacMam human adenosine A2A receptor or 1.4 µg of membranes prepared from HEK293 cells infected with BacMam human adenosine A1 receptor. Membranes were incubated in 50 mM Tris-HCl (HEK293-hA2A; pH 7.4) or 50 mM Tris-HCl, 100 mM NaCl, 10 mM MgCl2 (CHO-hA1; pH 7.4) in the presence of varying concentrations of test compound and 1 nM [^3H]ZM241385 (HEK293-hA2A) or [^3H]DPCPX (CHO-hA1) at 25° C. for 1 h. The assay was then terminated by rapid filtration onto GF/B grade Unifilter plates using a TomTec cell harvester, followed by 5 × 0.5 ml washes with ddH2O. Nonspecific binding was defined in the presence of 1 µM CGS 15943 (HEK293-hA2A) or 1 µM DPCPX (CHO-hA1). Bound radioactivity was determined by liquid scintillation counting and inhibition curves were analysed using a four-parameter logistic equation. IC50 values were converted to Ki values with the Cheng-Prusoff equation using a KD value derived from saturation binding studies.

[2] = target: human adenosine A1 receptor (Homo sapiens (Human), UniProt P30542); assay: Adenosine receptor inhibition binding assay, [3H]DPCPX, A1 receptor membranes; details: 1 nM [3H]DPCPX, 25° C., 1 h; Ki from IC50 by Cheng-Prusoff
Description: as §1

Sequence of human adenosine A1 receptor (P30542 whole entry): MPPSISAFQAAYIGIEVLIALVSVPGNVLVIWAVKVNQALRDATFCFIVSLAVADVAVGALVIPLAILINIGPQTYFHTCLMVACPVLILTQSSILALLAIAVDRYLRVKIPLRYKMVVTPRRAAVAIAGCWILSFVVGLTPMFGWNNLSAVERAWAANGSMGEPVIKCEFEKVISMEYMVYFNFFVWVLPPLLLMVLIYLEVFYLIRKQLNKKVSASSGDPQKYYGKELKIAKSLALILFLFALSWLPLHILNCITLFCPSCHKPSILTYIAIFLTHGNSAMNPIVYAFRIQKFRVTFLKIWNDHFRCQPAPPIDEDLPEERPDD
Sequence of human adenosine A2A receptor (P29274 whole entry): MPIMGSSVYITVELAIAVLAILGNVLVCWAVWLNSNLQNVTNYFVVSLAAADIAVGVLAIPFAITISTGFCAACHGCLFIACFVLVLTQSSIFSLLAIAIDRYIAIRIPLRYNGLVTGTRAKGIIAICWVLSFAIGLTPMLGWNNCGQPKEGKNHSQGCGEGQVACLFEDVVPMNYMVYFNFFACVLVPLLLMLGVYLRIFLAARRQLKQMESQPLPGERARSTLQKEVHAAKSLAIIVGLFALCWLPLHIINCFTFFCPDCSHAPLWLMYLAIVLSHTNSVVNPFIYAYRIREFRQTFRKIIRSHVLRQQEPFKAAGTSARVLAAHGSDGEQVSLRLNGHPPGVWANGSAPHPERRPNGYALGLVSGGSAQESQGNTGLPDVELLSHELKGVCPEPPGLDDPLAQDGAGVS

SMILES	A2A pKi [1]	A1 pKi [2]
Cc1cc(-c2c(-c3ccccc3)nc(N)n3c(=O)n(CCn4cccn4)nc23)cc(C)n1 [Example 1-1, 5-amino-8-(2,6-dimethyl-4-pyridyl)-7-phenyl-2-(2-pyrazol-1-ylethyl)-[1,2,4]triazolo[4,3-c]pyrimidin-3-one]	7.5	6.2
Cc1cc(-c2c(-c3ccccc3)nc(N)n3c(=O)n(CCc4nccn4C)nc23)cc(C)n1 [Example 1-2, 5-amino-8-(2,6-dimethyl-4-pyridyl)-2-[2-(1-methylimidazol-2-yl)ethyl]-7-phenyl-[1,2,4]triazolo[4,3-c]pyrimidin-3-one]	8.2	6.1
Cc1cc(-c2c(-c3ccccc3)nc(N)n3c(=O)n(CCc4ncc[nH]4)nc23)cc(C)n1 [Example 1-3, 5-amino-8-(2,6-dimethyl-4-pyridyl)-2-[2-(1H-imidazol-2-yl)ethyl]-7-phenyl-[1,2,4]triazolo[4,3-c]pyrimidin-3-one]	7.9	5.9
Cc1cc(-c2c(-c3ccccc3)nc(N)n3c(=O)n(CCc4nnn[nH]4)nc23)cc(C)n1 [Example 1-4, 5-amino-8-(2,6-dimethyl-4-pyridyl)-7-phenyl-2-[2-(1H-tetrazol-5-yl)ethyl]-[1,2,4]triazolo[4,3-c]pyrimidin-3-one]	6.4	<5.4
Cc1cc(-c2c(-c3ccccc3)nc(N)n3c(=O)n(C(C)c4cccs4)nc23)cc(C)n1 (stereo not drawn) [Example 1-8, 5-amino-8-(2,6-dimethyl-4-pyridyl)-7-phenyl-2-[1-(2-thienyl)ethyl]-[1,2,4]triazolo[4,3-c]pyrimidin-3-one]	7.8	6.7
Cc1cc(-c2c(-c3ccccc3)nc(N)n3c(=O)n(Cc4ncco4)nc23)cc(C)n1 [Example 1-9, 5-amino-8-(2,6-dimethyl-4-pyridyl)-2-(oxazol-2-ylmethyl)-7-phenyl-[1,2,4]triazolo[4,3-c]pyrimidin-3-one]	9.1	7.0
Cc1cc(-c2c(-c3ccccc3)nc(N)n3c(=O)n(Cc4cocn4)nc23)cc(C)n1 [Example 1-10, 5-amino-8-(2,6-dimethyl-4-pyridyl)-2-(oxazol-4-ylmethyl)-7-phenyl-[1,2,4]triazolo[4,3-c]pyrimidin-3-one]	9.2	6.8
Cc1cc(-c2c(-c3ccccc3)nc(N)n3c(=O)n(Cc4coc(C)n4)nc23)cc(C)n1 [Example 1-15, 5-amino-8-(2,6-dimethyl-4-pyridyl)-2-[(2-methyloxazol-4-yl)methyl]-7-phenyl-[1,2,4]triazolo[4,3-c]pyrimidin-3-one]	8.9	6.7
Cc1cc(-c2c(-c3ccccc3)nc(N)n3c(=O)n(Cc4noc(C)n4)nc23)cc(C)n1 [Example 1-20, 5-amino-8-(2,6-dimethyl-4-pyridyl)-2-[(5-methyl-1,2,4-oxadiazol-3-yl)methyl]-7-phenyl-[1,2,4]triazolo[4,3-c]pyrimidin-3-one]	8.7	6.6
Cc1cc(-c2c(-c3ccccc3)nc(N)n3c(=O)n(C[C@@H]4CCCO4)nc23)cc(C)n1 [Example 2-17, 5-amino-8-(2,6-dimethyl-4-pyridyl)-7-phenyl-2-[[(2S)-tetrahydrofuran-2-yl]methyl]-[1,2,4]triazolo[4,3-c]pyrimidin-3-one]	8.6	–

Further lines, results first:

A2A pKi [1]	A1 pKi [2]	SMILES
7.2	5.7	Cc1cc(-c2c(-c3ccccc3)nc(N)n3c(=O)n(CCc4nnn(C)n4)nc23)cc(C)n1 [Example 1-6, 5-amino-8-(2,6-dimethyl-4-pyridyl)-2-[2-(2-methyltetrazol-5-yl)ethyl]-7-phenyl-[1,2,4]triazolo[4,3-c]pyrimidin-3-one]
8.0	6.6	CCn1nccc1CCn1nc2c(-c3cc(C)nc(C)c3)c(-c3ccccc3)nc(N)n2c1=O [Example 1-7, 5-amino-8-(2,6-dimethyl-4-pyridyl)-2-[2-(2-ethylpyrazol-3-yl)ethyl]-7-phenyl-[1,2,4]triazolo[4,3-c]pyrimidin-3-one]
9.8	7.8	Cc1cc(-c2c(-c3ccccc3)nc(N)n3c(=O)n(Cc4nccn4C)nc23)cc(C)n1 [Example 1-11, 5-amino-8-(2,6-dimethyl-4-pyridyl)-2-[(1-methylimidazol-2-yl)methyl]-7-phenyl-[1,2,4]triazolo[4,3-c]pyrimidin-3-one]
9.0	7.1	Cc1cc(-c2c(-c3ccccc3)nc(N)n3c(=O)n(Cc4ccnn4C)nc23)cc(C)n1 [Example 1-12, 5-amino-8-(2,6-dimethyl-4-pyridyl)-2-[(2-methylpyrazol-3-yl)methyl]-7-phenyl-[1,2,4]triazolo[4,3-c]pyrimidin-3-one]
8.9	6.8	Cc1cc(-c2c(-c3ccccc3)nc(N)n3c(=O)n(Cc4ccon4)nc23)cc(C)n1 [Example 1-13, 5-amino-8-(2,6-dimethyl-4-pyridyl)-2-(isoxazol-3-ylmethyl)-7-phenyl-[1,2,4]triazolo[4,3-c]pyrimidin-3-one]
8.2	6.2	Cc1cc(-c2c(-c3ccccc3)nc(N)n3c(=O)n(Cc4nnc(C)o4)nc23)cc(C)n1 [Example 1-17, 5-amino-8-(2,6-dimethyl-4-pyridyl)-2-[(5-methyl-1,3,4-oxadiazol-2-yl)methyl]-7-phenyl-[1,2,4]triazolo[4,3-c]pyrimidin-3-one]
8.5	6.9	Cc1cc(-c2c(-c3ccccc3)nc(N)n3c(=O)n(Cc4cncn4C)nc23)cc(C)n1 [Example 1-18, 5-amino-8-(2,6-dimethyl-4-pyridyl)-2-[(3-methylimidazol-4-yl)methyl]-7-phenyl-[1,2,4]triazolo[4,3-c]pyrimidin-3-one]
9.6	7.2	Cc1cc(-c2c(-c3ccccc3)nc(N)n3c(=O)n(Cc4nonc4C)nc23)cc(C)n1 [Example 1-19, 5-amino-8-(2,6-dimethyl-4-pyridyl)-2-[(4-methyl-1,2,5-oxadiazol-3-yl)methyl]-7-phenyl-[1,2,4]triazolo[4,3-c]pyrimidin-3-one]
8.3	6.6	Cc1cc(-c2c(-c3ccccc3)nc(N)n3c(=O)n(Cc4cnc[nH]4)nc23)cc(C)n1 [Example 1-23, 5-amino-8-(2,6-dimethyl-4-pyridyl)-2-(1H-imidazol-5-ylmethyl)-7-phenyl-[1,2,4]triazolo[4,3-c]pyrimidin-3-one]
8.8	–	Cc1cc(-c2c(-c3ccccc3)nc(N)n3c(=O)n(C[C@H]4C[C@@H](O)CN4C)nc23)cc(C)n1 [Example 2-24, 5-amino-8-(2,6-dimethyl-4-pyridyl)-2-[[(2R,4R)-4-hydroxy-1-methyl-pyrrolidin-2-yl]methyl]-7-phenyl-[1,2,4]triazolo[4,3-c]pyrimidin-3-one]
8.8	–	Cc1cc(-c2c(-c3ccccc3)nc(N)n3c(=O)n(C[C@@H]4C[C@H](O)CN4C)nc23)cc(C)n1 [Example 2-25, 5-amino-8-(2,6-dimethyl-4-pyridyl)-2-[[(2S,4S)-4-hydroxy-1-methyl-pyrrolidin-2-yl]methyl]-7-phenyl-[1,2,4]triazolo[4,3-c]pyrimidin-3-one]
